Experiments:
Assay type in all cases: in vivo
[1] = test system: Alopecurus myosuroides (ALOMY); experiment: B1 Pre-emergence herbicidal activity; set-up: key: 5=total damage to plant; 0=no damage to plant; settings: pre-emergence application, rate 1000 g/ha, evaluated after 13 days
Outline: (§1)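 Damage was rated visually on a 0–5 scale (0 no damage, 5 total damage) 13 days after treatment. Soil-sown seeds had been sprayed one day after sowing with an aqueous acetone/water (50:50) solution containing 0.5% Tween 20, then kept in a glasshouse at 24/16 °C, 14 h light, 65% humidity.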

Avena fatua (AVEFA) [2] = experiment: B1 Pre-emergence herbicidal activity; set-up: key: 5=total damage to plant; 0=no damage to plant; settings: pre-emergence application, rate 1000 g/ha, evaluated after 13 days
Outline: as §1

[3] = test system: Triticum aestivium (TRZAW); experiment: B1 Pre-emergence herbicidal activity; set-up: key: 5=total damage to plant; 0=no damage to plant; settings: pre-emergence application, rate 1000 g/ha, evaluated after 13 days
Outline: as §1

[4] = test system: Echinochloa crus-galli (ECHCG); experiment: B1 Pre-emergence herbicidal activity; set-up: key to Pre-emergence herbicidal activity, ECHCG (damage score 0-5): 5=total damage to plant; 0=no damage to plant; settings: pre-emergence application, rate 1000 g/ha, evaluated after 13 days
Outline: as §1

Lolium perenne (LOLPE) [5] = experiment: B1 Pre-emergence herbicidal activity; set-up: key to Pre-emergence herbicidal activity, LOLPE (damage score 0-5): 5=total damage to plant; 0=no damage to plant; settings: pre-emergence application, rate 1000 g/ha, evaluated after 13 days
Outline: as §1

Setaria fabenr (SETFA) = experiment: B1 Pre-emergence herbicidal activity; set-up: key to Pre-emergence herbicidal activity, SETFA (damage score 0-5): 5=total damage to plant; 0=no damage to plant; settings: pre-emergence application, rate 1000 g/ha, evaluated after 13 days
Outline: as §1

Avena fatua (AVEFA) [6] = experiment: B2 Post-emergence herbicidal activity; settings: post-emergence application, rate 1000 g/ha, evaluated after 13 days
Outline: (§2)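 Visual damage score (0 = none, 5 = total) taken 13 days after treatment. Seedlings had been cultivated 8 days in pots of standard soil before being sprayed with an aqueous solution of compound in acetone/water (50:50) containing 0.5% Tween 20.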

[7] = test system: Echinochloa crus-galli (ECHCG); experiment: B2 Post-emergence herbicidal activity; set-up: key to Post-emergence herbicidal activity, ECHCG (damage score 0-5): 5=total damage to plant; 0=no damage to plant; settings: post-emergence application, rate 1000 g/ha, evaluated after 13 days
Outline: as §2

Lolium perenne (LOLPE) [8] = experiment: B2 Post-emergence herbicidal activity; settings: post-emergence application, rate 1000 g/ha, evaluated after 13 days
Outline: as §2

[9] = test system: Alopecurus myosuroides (ALOMY); experiment: B2 Post-emergence herbicidal activity; set-up: key: 5=total damage to plant; 0=no damage to plant; settings: post-emergence application, rate 1000 g/ha, evaluated after 13 days
Outline: as §2

Setaria fabenri (SETFA) = experiment: B2 Post-emergence herbicidal activity; set-up: key: 5=total damage to plant; 0=no damage to plant; settings: post-emergence application, rate 1000 g/ha, evaluated after 13 days
Outline: as §2

[10] = test system: Triticum aestivium (TRZAW); experiment: B2 Post-emergence herbicidal activity; set-up: key: 5=total damage to plant; 0=no damage to plant; settings: post-emergence application, rate 1000 g/ha, evaluated after 13 days
Outline: as §2

| SMILES | Pre-emergence herbicidal activity, ALOMY (damage score 0-5) [1] | Pre-emergence herbicidal activity, AVEFA (damage score 0-5) (Avena fatua (AVEFA) [2]) | Pre-emergence herbicidal activity, TRAZW (damage score 0-5) [3] | Pre-emergence herbicidal activity, ECHCG (damage score 0-5) [4] | Pre-emergence herbicidal activity, LOLPE (damage score 0-5) (Lolium perenne (LOLPE) [5]) | Pre-emergence herbicidal activity, SETFA (damage score 0-5) (Setaria fabenr (SETFA)) | Post-emergence herbicidal activity, AVEFA (damage score 0-5) (Avena fatua (AVEFA) [6]) | Post-emergence herbicidal activity, ECHCG (damage score 0-5) [7] | Post-emergence herbicidal activity, LOLPE (damage score 0-5) (Lolium perenne (LOLPE) [8]) | Post-emergence herbicidal activity, ALOMY (damage score 0-5) [9] | Post-emergence herbicidal activity, SETFA (damage score 0-5) (Setaria fabenri (SETFA)) | Post-emergence herbicidal activity, TRAZW (damage score 0-5) [10] |
| --- | --- | --- | --- | --- | --- | --- | --- | --- | --- | --- | --- | --- |
| CC(C)=CC(=O)Nc1ccc(-c2cncc(F)c2)nc1C(F)(F)F [Compound C37] | 0 | 1 | 0 | 4 | 1 | 5 | 3 | 5 | 2 | 0 | 5 | 0 |
| Cc1ccc(C(=O)Nc2ccc(-c3cncc(F)c3)nc2C(F)(F)F)cc1 [Compound C30] | 2 | 3 | 0 | 5 | 1 | 5 | 4 | 5 | 3 | 0 | 5 | 0 |
| CC(=O)N(C(C)=O)c1ccc(-c2cncnc2)nc1C(F)(F)F [Compound C6] | 1 | 4 | 1 | 4 | 2 | 4 | 4 | 4 | 4 | 1 | 5 | 1 |
| C=CCN(C(=O)CC)c1ccc(-c2cncc(F)c2)nc1C(F)(F)F [Compound C39] | 0 | 2 | 0 | 4 | 1 | 5 | 3 | 5 | 2 | 0 | 5 | 1 |
| C#CCN(C(=O)CC)c1ccc(-c2cncc(F)c2)nc1C(F)(F)F [Compound C94] | 0 | 1 | 0 | 2 | 1 | 5 | 2 | 4 | 2 | 0 | 5 | 0 |
| O=C(COc1ccccc1)Nc1ccc(-c2cncc(F)c2)nc1C(F)(F)F [Compound C28] | 0 | 3 | 0 | 4 | 1 | 4 | 4 | 5 | 3 | 0 | 5 | 0 |
| C#CCN(C(=O)C(C)C)c1ccc(-c2cncc(F)c2)nc1C(F)(F)F [Compound C61] | 0 | 1 | 0 | 3 | 0 | 5 | 2 | 4 | 2 | 1 | 4 | 0 |
| O=C(Nc1ccc(-c2cncc(F)c2)nc1C(F)(F)F)c1cncnc1 [Compound C120, N-[6-(5-fluoro-3-pyridyl)-2-(trifluoromethyl)-3-pyridyl]pyrimidine-5-carboxamide] | 0 | 3 | 0 | 4 | 1 | 5 | 3 | 5 | 3 | 1 | 5 | 2 |

Reference: patent US11230538B2, “Herbicides” (SYNGENTA PARTICIPATIONS AG, priority 2016, dated 2022)
